Where two headings read alike, the source gives them in different places.
Columns and labels:
isolated atria = assay: Contractile force of isolated atria; parameters: species or system guinea pig (male Hartley); settings: Cavia porcellus; 50.0 μg/ml, isolated guinea pig atria; read-out: Maximum Contractile Force (increase)
Procedure: The pharmacological effects of the compound of the following general formula I will now be described: [drawing 9] wherein R1, R2 and R3 are as defined above. (1) The contractile force of isolated atria was tested according to the method of L. J. Macleod described in Pharmacological Experiments on Intact Preparations, pages 112-115 (1970). A 7-weeks-old male Hartley guinea pig (having a body weight of about 350 g) was killed by a blow on the head. The chest was opened and the heart was removed as quickly as possible and placed in Ringer-Locke solution (prepared by adding distilled water to 9.0 g of sodium chloride, 0.25 g of potassium chloride, 0.15 g of calcium chloride and 1.0 g of glucose so that the total amount was 1,000 ml) at room temperature. All other tissues was cut away until nothing was left except the atria. Threads were tied to each tip of the atria and the preparation thus obtained was mounted in Ringer-Locke solution at 30±1° C., through which a brisk stream of pure oxygen was bubbled. One thread was attached to a fixed pin in the Magnus' bath and the other to a force-displacement transducer connected to an electrical amplifier and recorder. When the rate and amplitude became constant, recording was started. After 1 minute, the solution of sample compound was injected and recording was conducted for 2 minutes. After completion of recording, the isolated atria was washed with Ringer-Locke solution until the rate and amplitude became constant. After 15 minutes, recording was started again.

coronary blood flow = assay: Coronary-vasodilating action (Langendorff's method); parameters: species or system guinea pig (male Hartley); settings: Cavia porcellus; for activation at 0.1 mg: dose 100 μg
Procedure: (3) The coronary-vasodilating effect was tested according to the method disclosed in Basic Lectures of Medicine Development, Volume V, Pharmacological Test Methods, Part 2, page 537 (1971). A 7-weeks-old male Hartley guinea pig (having a body weight of about 350 g) was used. And the measurement was carried out under a perfusion pressure of about 60 mmHg according to the Langendorff's method by using as a nutrient solution a Krebs' solution. The incubation temperature was 37° C.

[1] = test system: systolic blood pressure and heart rate, rats; assay: Effect on systolic blood pressure and heart rate (indirect tail-cuff method); type: in vivo, rat (male Wistar); settings: 25 mg/kg p.o.
Procedure: Male Wister rats (having a body weight of about 350 g) were used. Systolic blood pressure and heart rate were measured in rats by indirect tail-cuff method, using a programmed electrosphymomanometer.

[2] = test system: smooth muscle of bronchus; assay: Bronchodilation effect (tracheal ring chain); parameters: species or system guinea pig (male Hartley)
Procedure: (7) The bronchodilation effect was tested according to the method of L. J. Macleod in Pharmacological Experiments on Intact Preparations, Pages 100-103 (1970). A 7-weeks-old, male Hartley guinea pig (having a body weight of about 350 g) was killed by a blow on the head and cutting the throat. The trachea was dissected out and transferred into Krebs' solution. The excessive tissue was removed and the trachea was cut transversely with great care not to damage smooth muscle, to form at least 5 tracheal rings which are tied together so as to form chain. One thread was attached to a fixed pin in the Magnus' bath and the other, to a force-displacement transducer connected to an electrical amplifier and recorder. Experiments with this preparation were performed at 37±1° C. in Krebs' solution through which O2 plus 5% CO2 was bubbled. The sample compound was injected and the recording was conducted for 4 minutes. After completion of the recording, the sample was washed out with Krebs' solution until the base line became stable. After 30 to 50 minutes, the recording was started again.

[3] = test system: isolated papillary muscles; assay: Contractile force of isolated papillary muscles; parameters: species or system cat (female); settings: Felis catus, isolated cat papillary muscles, read-out: Maximum Contractile Force (increase); for activation at 10 µg/mL: 1.0 × 10^-5 g/ml
Procedure: (2) The contractile force of isolated papillary muscles was tested according to the method described in Basic Lectures of Medicine Development, Volume V, Pharmacological Test Methods, Part 2, page 535 (1971). A female cat (having a body weight of about 3.5 kg) was anaesthetized with ether-chloroform gas and exsanguinated. The chest of each cat was opened and the heart was excised, rinsed with Krebs-Henseleitsolution (prepared by adding distilled water to 6.92 g of sodium chloride, 0.35 g of calcium chloride, 0.29 g of magnesium sulfate, 0.16 g of mono-basic potassium phosphate, 2.1 g of sodium bicarbonate and 1.8 g of glucose so that the total amount was 1 l) and one or more small, thin papillary muscles from the right ventricule were dissected. Then papillary muscles were mounted in 20 ml Magnus' bath containing Krebs-Henseleit solution bubbled with oxygen gas at a temperature of 30±1° C. The papillary muscles were stimulated electrically at the rate of 2 beat/sec. and a voltage of 20% above threshold. The developed tension of the muscles was recorded isometrically on recorder by the use of force displacement tansducers.

[4] = test system: ventricular muscle and heart rate, anaesthetized dog; assay: Contractile force of ventricular muscle and heart rate of anaesthetized dog; type: in vivo, dog (male); settings: for Heart Rate (up): infused i.v. 320 μg/kg/minute, anaesthetized dog; for Contractile Force of Ventricular Muscles (increase): infused i.v. (left femoral vein) 320 μg/kg/minute until maximum inotropic effect
Procedure: (4) The contractile force of ventricular muscle and heart rate in anaesthetized dog was tested according to the method described in Basic Lectures of Medicine Development, Volume V, Pharmacological Test Methods, Part 2, page 544 (1971). A male dog (having a body weight of about 12-14 kg) was anaesthetized with 40 mg/kg body weight of pentobarbital sodium (i.p.). Supplemental dose of pentobarbital was administered whenever necessary. An intra-tracheal cannula was inserted and ventilation was carried out by means of Harvard constant-volume, positive pressure pump using room air. The chest was opened by a midline incision and the heart was suspended in the pericardial cradle. The contratile force of the myocardium was measured by means of Walton-Brodie type strain-gauge arch sutured onto the left ventricle. Systemic blood pressure was measured from the left femoral artery by a pressure transducer and heart rate was calculated by blood pressure pulses. Sample compounds were infused into the left femoral vein at a rate of 320 μg/kg/minute until a maximum inotropic effect is obtained.

platelet aggregation = assay: Inhibition of platelet aggregation; type: cell-based, rat (male Wistar); settings: Rattus norvegicus, 83.0 μg/ml
Procedure: (5) The inhibition of platelet aggregation was determined according to the method of Yamazaki [Hiroo Yamazaki, Clinical Inspections, 22, (9) 935-943 (1978)]. Eleven-weeks-old male Wistar rats (having a body weight of about 350 g) were used. Blood was drawn by venupuncture in the […]. Nine fold volume of blood was drawn, with mixing, into a syringe containing one volume of 3.1% (W/V) sodium citrate. Platelet-rich-plasma (PRP) was collected as the supernatant after centrifuging the citrated blood at 1,000 rpm for 10 min. Platelet-poor-plasma (PPP) was the resulting supernatant after the residual citrated blood was additionally centrifuged at 3,000 rpm for 10 min. Each 210 μl aliquot of PPP and PRP was placed in cuvette and stirred at 37° C. in aggregometer. The aggregation reactions were determined by changes in light transmissions. A 20 μl sample was injected into PRP in the aggregometer, and 1-2 min. later, a 20 μl aggregation stimulant was injected. Aggregation pattern and maximal aggregation rate of each sample were compared with those of control. 100 μM of ADP (adenosine-5'-diphosphate or 100 μg/ml of collagen was used as the aggregation stimulant. The obtained results are shown in Table 5.

[5] = Acute toxicity (Litchfield-Wilcoxon method); settings: mouse, in vivo, iv; tail vein, 6-weeks-old male ddY mice
Procedure: The acute toxicity of the compound of the general formula I was determined according to the Litchfield-Wilcoxon method [J. Pharm. Exp. Ther., 96, 99 (1949)] using 6-weeks-old male ddY mice (having a body weight of 19 to 24 g) while administrating the sample compound in the tail vein.

[6] = 0.5 h, dose 500 μg, 30 minutes, read-out: Coronary Blood Flow Increase Ratio, 30 Minutes after Administration
[7] = dose 500 μg, read-out: Coronary Blood Flow Increase Ratio, Maximum Increase Ratio of Sample
[8] = read-out: Coronary Blood Flow Increase Ratio, Maximum Increase Ratio of Sample

| Compound | activation at 50 µg/mL (isolated atria) [%] | activation at 0.5 mg (coronary blood flow; [6]) [%] | activation at 0.5 mg (coronary blood flow; [7]) [%] | Blood Pressure (systolic), direction of change [1] | Heart Rate (up) [1] [%] | also measured |
| --- | --- | --- | --- | --- | --- | --- |
| CC1=C(C2CCNCC2)SCC(=O)N1 [By-product, 5-methyl-6-(4-piperidinyl)-2H-1,4-thiazin-3(4H)-one] | 5 | 5 | 12 |  |  |  |
| Cc1[nH]c(=O)c(C#N)cc1-c1ccncc1 [Milrinone] |  |  |  | decrease | 51 |  |
| CC1=C(c2ccncc2)SCC(=O)N1C [R1 = CH3, R2 = CH3, R3 = H, 4,5-dimethyl-6-(4-pyridinyl)-2H-1,4-thiazin-3-one] | 18 |  |  |  |  | activation at 0.1 mg (coronary blood flow; 0.5 h, 30 minutes, read-out: Coronary Blood Flow Increase Ratio, 30 Minutes after Administration): 8%; activation at 0.1 mg (coronary blood flow; [8]): 28% |
| CC1=C(c2ccncc2)SCC(=O)N1 [R1 = H, R2 = CH3, R3 = H, 5-methyl-6-(4-pyridinyl)-2H-1,4-thiazin-3(4H)-one] | 40 | 10 | 71 | decrease | 19 | Influence of Smooth Muscle of Bronchus (relaxed by) [2]: ≥ 0.13 m/m; activation at 10 µg/mL [3]: 61%; activation at 1 µg/mL ([3]; 1.0 × 10^-6 g/ml): 27%; Heart Rate (up) [4]: 30%; Contractile Force of Ventricular Muscles (increase) [4]: 170%; inhibition at 83 µg/mL (platelet aggregation; stimulant 100 μM ADP, read-out: Aggregation Inhibition Ratio, ADP): 80%; inhibition at 83 µg/mL (platelet aggregation; stimulant 100 μg/ml collagen, read-out: Aggregation Inhibition Ratio, Collagen): 100%; LD50 [5]: 165 to 200 mg/kg |
| O=NO [Sodium nitrite, reference compound] |  |  |  |  |  | activation at 0.5 mg (coronary blood flow; 0.5 h, read-out: Coronary Blood Flow Increase Ratio, 30 Minutes after Administration): 5%; activation at 0.5 mg (coronary blood flow; [8]): 20% |
| Cn1c(=O)c2[nH]cnc2n(C)c1=O [Theophylline, reference compound] |  | -10 | 32 | increase | 29 |  |
| Nc1cc(-c2ccncc2)c[nH]c1=O [amrinone, reference compound] |  |  |  |  |  | activation at 100 µg/mL ([3]; 1.0 × 10^-4 g/ml): 77%; activation at 10 µg/mL [3]: 17%; Heart Rate (up) [4]: 25%; Contractile Force of Ventricular Muscles (increase) [4]: 25% |
| CC(C)NCC(O)c1ccc(O)c(O)c1 (centres unmarked) [isoproterenol, reference compound] | 40 |  |  |  |  |  |

From patent US4565813A, “1,4-Thiazine derivatives” (Zenyaku Kogyo Kabushiki Kaisha, priority 1983, dated 1986)
